Test results taken from the supplement of paper PMC10331698.
± gives the standard deviation of the averaged measurements.

What was measured:
Experiment in all cases: level (log10 ratio to DMSO vehicle control); higher = higher biomarker level / cell amount than vehicle control
Conditions in all cases: in DMSO
[1] = compound: FC(F)(F)C(F)(F)CNCC(F)(F)C(F)(F)F [Bis(1H,1H-perfluoropropyl)amine]
Experimental: (§1)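 BioMAP Diversity Plus panel of 12 human primary cell co-culture systems (3C, 4H, LPS, SAg, BT, BF4T, BE3C, CASM3C, HDF3CGF, KF3CT, MyoF, Mphg). Compounds were added 1 h before stimulation and left for 24 h (MyoF 48 h; BT 72 h for soluble read-outs or 6 d for IgG). Biomarkers were read by ELISA, cytotoxicity by SRB, PBMC viability and proliferation by Alamar Blue. Each well value was divided by the mean of 8 DMSO control wells on the same plate and log10 transformed; duplicate blinded samples were tested at 4 concentrations.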

[2] = compound: O=S(=O)(Cl)C(F)(F)C(F)(F)C(F)(F)C(F)(F)C(F)(F)C(F)(F)C(F)(F)C(F)(F)F [Perfluoro-1-octanesulfonyl chloride]
Experimental: as §1

[3] = compound: O=S(=O)(O)C(F)(F)C(F)(F)C(F)(F)C(F)(F)C(F)(F)C(F)(F)C(F)(F)C(F)(F)C(F)(F)C(F)(F)F [Sodium perfluorodecanesulfonate]
Experimental: as §1

[4] = compound: O=S(=O)(F)C(F)(F)C(F)(F)C(F)(F)C(F)(F)C(F)(F)C(F)(F)C(F)(F)C(F)(F)F [Perfluorooctanesulfonyl fluoride]
Experimental: as §1

Hexafluoroamylene glycol = compound: OCC(F)(F)C(F)(F)C(F)(F)CO [Hexafluoroamylene glycol]
Experimental: as §1

[5] = compound: O=C(O)C=CC(F)(C(F)(F)F)C(F)(F)F [3-(Perfluoroisopropyl)-2-propenoic acid]
Experimental: as §1

Test System	level (log10) ([1]; 6700 nM)	level (log10) ([1]; 20000 nM)	level (log10) ([1]; 60000 nM)	level (log10) ([2]; 6700 nM)	level (log10) ([2]; 20000 nM)	level (log10) ([2]; 60000 nM)	level (log10) ([3]; 1500 nM)	level (log10) ([3]; 4400 nM)	level (log10) ([3]; 13000 nM)	level (log10) ([3]; 40000 nM)	level (log10) ([4]; 6700 nM)	level (log10) ([4]; 20000 nM)	level (log10) ([4]; 60000 nM)	level (log10) (Hexafluoroamylene glycol; 6700 nM)	level (log10) (Hexafluoroamylene glycol; 20000 nM)	level (log10) (Hexafluoroamylene glycol; 60000 nM)	level (log10) ([5]; 6700 nM)	level (log10) ([5]; 20000 nM)	level (log10) ([5]; 60000 nM)
lMphg:CCL2/MCP-1	0.0015 ± 0.0035	0.001 ± 0.013	-0.02 ± 0.042	0.0175 ± 0.0092	0.0255 ± 0.0092	0.032 ± 0.0028	0.022 ± 0.0028	-0.0035 ± 0.013	0.0135 ± 0.005	0.0225 ± 0.026	-0.004 ± 0.023	-0.0245 ± 0.023	-0.0165 ± 0.0021	-0.001 ± 0.03	-0.0115 ± 0.0064	-0.007 ± 0.023	-0.023 ± 0.014	-0.0275 ± 0.011	0.006 ± 0.03
lMphg:CD40	0.006 ± 0.0057	0.006 ± 0.0028	-0.0065 ± 0.0092	-0.0165 ± 0.019	-0.01	-0.0065 ± 0.0035	-0.0305 ± 0.0078	-0.0285 ± 0.016	-0.0455 ± 0.012	-0.104 ± 0.018	-0.023 ± 0.051	-0.0205 ± 0.049	-0.0575 ± 0.042	-0.0175 ± 0.0021	-0.002 ± 0.0028	-0.0285 ± 0.039	-0.0395 ± 0.053	-0.01 ± 0.025	-0.0045 ± 0.019
lMphg:CD62E/E-Selectin	0.0005 ± 0.0035	-0.0185 ± 0.0078	0.002 ± 0.02	-0.0085 ± 0.0035	-0.0165 ± 0.037	0.073 ± 0.014	-0.011 ± 0.0014	-0.0265 ± 0.028	0.0135 ± 0.018	0.0205 ± 0.021	-0.0175 ± 0.013	-0.0205 ± 0.0035	-0.028 ± 0.014	0.002 ± 0.0057	-0.0215 ± 0.0092	0.0055 ± 0.025	-0.0045 ± 0.012	-0.002 ± 0.0099	0.0205 ± 0.0035
lMphg:CD69	-0.017 ± 0.028	-0.012 ± 0.03	0.0045 ± 0.14	-0.054 ± 0.0099	-0.0855 ± 0.033	-0.111 ± 0.09	-0.001 ± 0.014	-0.022 ± 0.052	-0.0095 ± 0.032	-0.084 ± 0.011	-0.0075 ± 0.036	-0.0125 ± 0.029	-0.0175 ± 0.032	-0.046 ± 0.027	-0.0425 ± 0.025	-0.027 ± 0.0071	-0.0265 ± 0.022	-0.021 ± 0.035	0.0235 ± 0.049
lMphg:CD106/VCAM-1	0.0135 ± 0.011	0.0055 ± 0.0092	0.0075 ± 0.0035	0.008 ± 0.0057	0.0135 ± 0.0078	0.0255 ± 0.00071	-0.0065 ± 0.012	-0.0215 ± 0.018	-0.021 ± 0.0071	-0.0515 ± 0.0078	0.009 ± 0.017	0.0205 ± 0.012	-0.0125 ± 0.0092	-0.0185 ± 0.012	-0.014 ± 0.0057	-0.0175 ± 0.0092	0.001 ± 0.024	0.0125 ± 0.005	0.002 ± 0.034
lMphg:CXCL8/IL-8	0 ± 0.011	0.0075 ± 0.069	-0.0035 ± 0.053	-0.002 ± 0.017	0.0335 ± 0.00071	0.115 ± 0.061	0.0185 ± 0.032	0.0015 ± 0.005	0.042 ± 0.0071	0.131 ± 0.013	0.0275 ± 0.0078	0.0145 ± 0.013	0.0335 ± 0.011	0.014 ± 0.021	-0.0215 ± 0.016	0.0185 ± 0.06	-0.0225 ± 0.0021	-0.006 ± 0.0028	0.0415 ± 0.054
lMphg:IL-1alpha	-0.025 ± 0.0071	-0.031 ± 0.0057	0.0295 ± 0.059	-0.0225 ± 0.033	-0.005 ± 0.042	0.021 ± 0.088	0.0345 ± 0.021	-0.002 ± 0.028	0.032 ± 0.013	0.0505 ± 0.03	0.01 ± 0.013	-0.0025 ± 0.005	0.0185 ± 0.019	0.005 ± 0.02	0.015 ± 0.027	0.029 ± 0.061	-0.0055 ± 0.037	0.0095 ± 0.016	-0.0025 ± 0.012
lMphg:M-CSF	-0.007 ± 0.011	-0.0145 ± 0.022	0.0165 ± 0.021	-0.023 ± 0.042	-0.012 ± 0.031	0.0215 ± 0.04	-0.0215 ± 0.0035	-0.0255 ± 0.03	-0.013 ± 0.021	0.0255 ± 0.028	-0.006 ± 0.03	-0.03 ± 0.016	-0.0335 ± 0.00071	-0.008 ± 0.0057	-0.009 ± 0.0071	0.006 ± 0.0014	-0.0105 ± 0.0064	-0.021 ± 0.014	-0.015 ± 0.025
lMphg:SRB	-0.0085 ± 0.00071	-0.007 ± 0.0028	0.009 ± 0.018	-0.004 ± 0.0014	-0.004 ± 0.011	-0.002 ± 0.0071	-0.0075 ± 0.012	-0.0025 ± 0.00071	-0.001 ± 0.0099	-0.011 ± 0.0099	0.005 ± 0.0099	-0.0085 ± 0.0092	-0.0015 ± 0.0092	0.0055 ± 0.015	0.007 ± 0.02	-0.002	-0.017 ± 0.0085	-0.012 ± 0.0099	-0.0085 ± 0.012
lMphg:SRB-Mphg	-0.025 ± 0.03	-0.058 ± 0.023	-0.0025 ± 0.037	0.0025 ± 0.013	0.004 ± 0.016	-0.0185 ± 0.025	-0.067 ± 0.12	-0.0945 ± 0.083	-0.119 ± 0.053	-0.057 ± 0.13	0.0065 ± 0.005	-0.004	0.004 ± 0.0042	0.0005 ± 0.0092	0.0035 ± 0.015	0.007 ± 0.013	0.0005 ± 0.013	0.004 ± 0.0085	0.0075 ± 0.015
lMphg:sIL-10	-0.0755 ± 0.028	0.037 ± 0.024	-0.059 ± 0.034	0.0345 ± 0.054	-0.071 ± 0.1	-0.341 ± 0.033	-0.0235 ± 0.00071	-0.122 ± 0.019	-0.0595 ± 0.00071	-0.269 ± 0.06	-0.0605 ± 0.096	-0.0755 ± 0.11	0.0005 ± 0.063	-0.0035 ± 0.0092	-0.0155 ± 0.016	-0.0135 ± 0.0021	-0.055 ± 0.064	-0.048 ± 0.017	-0.082 ± 0.0071
